The source of these data is patent US11247994B2, “6-dithio-substituted-2′-deoxyguanosine compound, preparation method thereof and use thereof” (ZHEJIANG UNIVERSITY, priority 2018, dated 2022).

For series [1], the system named is NCM460. Briefly: MTT assay, cell growth inhibition, NCM460. The series is classed as cell-based. As to conditions: Homo sapiens, 48 hours, read-out: Tumor cell growth inhibition IC50, NCM460. From the text:
(§1) MTT Assay—Inhibitory Effect of 6-dithio-substituted-2′-deoxyguanosine Derivatives on Tumor Cell Growth
(§2) We measured the tumor cell growth inhibitory activity of candidate compounds by MTT assay. Human tumor cells in logarithmic growth phase were digested with 0.25% pancreatin for a certain time, centrifuged, re-suspended and counted with a blood cell counting plate to prepare a cell suspension, and the cell suspension was adjusted to 1.0×10^4-1×10^5 cells/mL. The cell suspension was inoculated into a 96-well culture plate, 100 μL per well, and cultured in an incubator with saturated humidity, 37° C. and 5% CO2 for 24 hours until the cells completely adhered to the wall. The test compound was diluted to the required concentration with a complete medium, the complete medium of the 96-well culture plate inoculated with human tumor cells was sucked out, a medicament-containing medium was added, 100 μL per well, the final concentration of DMSO was less than 0.1%, and the culture plate was put in an incubator for 48 hours. 10 μl of MTT was added to each well of the 96-well plate, and the culture was continued for 4 h. The culture was stopped and the culture solution in the well was carefully sucked off. 150 μL DMSO was added to each well, and shaken at a low speed for 10 min on a shaking table, so that the crystal was fully dissolved. The absorbance of each well was measured at OD 570 nm of an enzyme-linked immunosorbent assay instrument. At the same time, zeroing wells (the culture medium, MTT, dimethyl sulfoxide) and control wells (cells, a drug dissolution medium with the same concentration, a culture solution, MTT, dimethyl sulfoxide) were set up, and the cell growth inhibitory activity was calculated with the corresponding solvents as the control. 3-6 multiple wells in each group were set up with repetition of several times. Cell viability of control=(Adrug group−Azeroing well)/(Acontrol well−Azeroing well)*100%. Drawing was drawn, the data were fitted into a concentration response curve with a variable slope, and IC50 value was calculated from the curve.

Series [2] concerns human colon cancer cell line HCT116 subcutaneous transplanted tumor. Nature of the series: Tumor-bearing test in nude mice, HCT116 subcutaneous transplanted tumor (tumor volume, TUNEL). Format: in vivo. As to conditions: HCT116 model. An excerpt: Tumor-Bearing Test in Nude Mice—Inhibitory Effect of 6-Dithio-Substituted-2′-Deoxyguanosine Derivatives on the Growth of Subcutaneous Transplanted Tumor Tissue in Nude Mice
1) Tumor-Bearing Mouse Model of Human Colon Cancer Cell Line HCT116
We took human colon cancer cell line HCT116 as the research object, and established a subcutaneous transplanted tumor model of human colon cancer in 32 immunodeficient nude mice. The 24th generation HCT116 cells in logarithmic growth phase were digested with pancreatin to prepare a single-cell suspension, and 1×10^7 cells were inoculated subcutaneously in the right armpit of male nude mice about 5 weeks old. After inoculation, cyclophosphamide (100 mg/kg) was injected intraperitoneally for two consecutive days. […] On the 20th day after colon cancer cell HCT116 was implanted subcutaneously, nude mice were divided into 7 groups by a random number table method, including a test drug group, a positive control group and a blank control group. Specifically, group A: the compound A was administrated; Group B: the compound B was administrated; Group C: the compound C was administrated; Group D: the compound D was administrated; Group E: the compound 6-thio-DG was administrated; Group F: the compound PX-12 was administrated; Group G: blank group, without administration of any compound. Except group C with 3 rats and group G with 4 rats, all other 5 groups had 5 rats, they mice were labeled and injected by tail vein once every two days for 24 days, 12 times, with the dose of compound A being 2 mg/kg for the first 8 times and 10 mg/kg for the last 4 times, and the dosages of other drugs being the same molar weights. The tumor volume was calculated by taking the length of the tumor as the longest diameter and the width as the corresponding vertical diameter, and the tumor volume V=(length×width^2) mm^3/2. 48 hours after the last treatment, blood was taken from the eyes, and then the animals were killed. Blood was centrifuged to get the supernatant, and then blood biochemical analysis was performed. Paraffin embedded sections of fixed tissues were stained with HE. The tumor mass in a frozen tissue was sectioned in a frozen state, and then stained by DAPI and TUNEL to judge the apoptosis of the tumor tissue in nude mice.

Series [3] concerns the target T1, TrxR/Trx-1 (Homo sapiens, UniProt P10599).
T1 sequence (P10599 2-105 limits assumed): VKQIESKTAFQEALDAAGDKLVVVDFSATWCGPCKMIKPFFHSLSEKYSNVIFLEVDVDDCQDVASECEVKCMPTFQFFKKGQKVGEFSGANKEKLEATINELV
Nature of the series: Ellman test, inhibition of TrxR/Trx-1 activity. The series is classed as biochemical. As to conditions: read-out: TrxR/Trx-1 IC50. From the text: Ellman Test—Inhibitory Effect of 6-dithio-substituted-2′-deoxyguanosine Derivative Analogues on TrxR/Trx-1 Activity
A TrxR/TR experiment based on the Ellman reaction was used to determine the inhibitory activity of candidate compounds. Ellman reaction is that 5,5′-dithiobis (2-nitrobenzoic acid) (DTNB) reacts with sulfhydryl (—SH) to form a yellow substance with absorption at 412 nm. The increase of absorption can be equivalent to the decrease of NADPH mediated by TrxR, thus further judging the activity of TrxR/Trx-1. All experiments were carried out on 96-well plates. Before the start of the enzyme reaction, five groups of corresponding test compound stock solutions with different concentrations were prepared. In the TrxR/Trx-1 reaction, a total volume per well was 60 μL, including 100 mM HEPES, 5 mM EDTA (HE buffer, pH 7.5), 1 mM NADPH, 1.0 μM TrxR, 0.8 μM Trx-1, 2.5 mg/mL bovine insulin and the required concentration of compounds to be tested. No compound to be tested was added to the control group. No compound to be tested, TrxR and Trx-1 were added in the blank group. The plate was shaken on an oscillator for 30 seconds to fully mix the reactants. After incubation at 37° C. for 30 min, 100 μL of the prepared mixture containing 6 M guanidine hydrochloride, 50 mm Tris and 10 mm DTNB was added to terminate the reaction. After 15 minutes of incubation, the absorbance was measured at 412 nm. Finally, TrxR/Trx-1 activity %=(Atest−Akb)/(Acontrol−Akb), that is, the relative percentage of TrxR/Trx-1 activity was the activity inhibited by adding 2′-deoxyguanosine derivatives relative to the activity without 2′-deoxyguanosine derivatives. The data were fitted into a concentration response curve with a variable slope, and the IC50 value was calculated from the curve.

A short description of series [4]: A375 tumor-bearing mouse model, body weight, toxicity and blood biochemical indexes. The series is classed as in vivo. As to conditions: compound D 10 mg/kg. The method, then: 2) Human Melanoma Cell A375 Tumor-Bearing Mouse Model
We further studied the inhibitory effect of the compound D on human malignant melanoma by using A375 tumor-bearing mouse model. The method was basically the same as above. Dacarbazine (DTIC) is the first-line drug for melanoma. The designed administration groups were: compound D 10 mg/kg group; 6-thio-dG+PX12 combined drug group (the dose is equivalent to twice the molar amount of the compound D); DTIC 20.4 mg/kg group (the dose is equivalent to 4 times the molar amount of the compound D) and blank solvent group.

Series [5] relates to human colon cancer cells HT29. Briefly: MTT assay, tumor cell growth inhibition, HT29. As to conditions: HT-29, 48 hours. Format: cell-based.
Source text: as §1, §2

Turning to `CC(C)SSc1nc(N)nc2c1ncn2[C@H]1C[C@H](O)[C@@H](CO)O1` [D, 6-(isopropyldithio)-2′-deoxyguanosine], the IC50 in series [1] is above 1000 µM; in series [3] it was 4.26 µM; in series [5], 4.24 µM. Further, the “Extent of apoptosis in tumor tissue (TUNEL staining, rank order)” value in series [2] (frozen tumor sections, DAPI and TUNEL, G group = blank) is given as “D group>A group≈B group≈E group (6-thio-dG group)>C group>F group (PX-12 group)>G group (KB group)”. For the same compound, in series [2] (tail vein once every two days for 24 days, compound A 2 mg/kg first 8 times, 10 mg/kg last 4 times, others equimolar, KB = blank), the “Inhibitory effect on the growth of subcutaneous transplanted tumor tissue in nude mice (rank order, from slope of tumor volume)” value is “D>B≈A≈6-thio-dG>PX-12>C>KB”. The “Ability to inhibit the growth of transplanted tumor tissue compared with positive controls” value in series [2] (tail vein once every two days for 24 days, equimolar doses) is “stronger than that of positive control 6-thio-dG and PX-12”. Moreover, the Body weight entry in series [4] is “after 13 days of administration, the body weight was significantly higher than that of DITC group, 6-thio-dG and PX-12 combination group”. In addition, the “Toxicity compared with 6-thio-dG and PX-12 combination” value in series [4] (combination at twice the molar amount) is recorded as “lower toxicity than the combined drug group”.
